In patent publication US20240246942A1, “KINASE INHIBITORS FOR THE TREATMENT OF NEURODEGENERATIVE DISEASES” (priority 2020, published 2024):

Legend:
Assay in all cases: biochemical
[1] = target: T1, panel of 374 wild-type kinases (Homo sapiens, UniProt P10398); conditions: read-out: % Enzyme Activity (relative to DMSO controls), ARAF
T1 construct: purchased Reaction Biology Corporation
T1 sequence (P10398 1-606): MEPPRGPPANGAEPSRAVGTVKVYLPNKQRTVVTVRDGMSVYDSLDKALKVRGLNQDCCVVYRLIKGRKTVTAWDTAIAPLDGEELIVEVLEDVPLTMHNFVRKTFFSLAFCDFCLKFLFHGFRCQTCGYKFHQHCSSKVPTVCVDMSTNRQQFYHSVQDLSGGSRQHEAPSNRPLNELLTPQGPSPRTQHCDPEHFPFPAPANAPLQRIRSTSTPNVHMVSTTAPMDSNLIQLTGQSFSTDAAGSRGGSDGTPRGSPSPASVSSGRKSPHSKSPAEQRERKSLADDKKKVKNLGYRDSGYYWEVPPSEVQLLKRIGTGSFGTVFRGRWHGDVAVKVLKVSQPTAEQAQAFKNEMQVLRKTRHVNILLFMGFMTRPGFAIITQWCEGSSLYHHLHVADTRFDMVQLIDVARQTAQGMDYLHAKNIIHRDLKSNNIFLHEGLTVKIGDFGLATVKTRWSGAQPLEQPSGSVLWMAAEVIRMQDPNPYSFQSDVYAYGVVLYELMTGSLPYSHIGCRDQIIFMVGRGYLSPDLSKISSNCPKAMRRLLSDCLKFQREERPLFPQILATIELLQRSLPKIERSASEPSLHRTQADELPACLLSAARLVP

[2] = target: T2, panel of 374 wild-type kinases (Homo sapiens, UniProt P06213); conditions: read-out: % Enzyme Activity (relative to DMSO controls), IR
T2 construct: purchased Reaction Biology Corporation

[3] = target: T3, panel of 374 wild-type kinases (Homo sapiens, UniProt Q92630); conditions: read-out: % Enzyme Activity (relative to DMSO controls), DYRK2
T3 construct: purchased Reaction Biology Corporation
T3 sequence (Q92630 1-601): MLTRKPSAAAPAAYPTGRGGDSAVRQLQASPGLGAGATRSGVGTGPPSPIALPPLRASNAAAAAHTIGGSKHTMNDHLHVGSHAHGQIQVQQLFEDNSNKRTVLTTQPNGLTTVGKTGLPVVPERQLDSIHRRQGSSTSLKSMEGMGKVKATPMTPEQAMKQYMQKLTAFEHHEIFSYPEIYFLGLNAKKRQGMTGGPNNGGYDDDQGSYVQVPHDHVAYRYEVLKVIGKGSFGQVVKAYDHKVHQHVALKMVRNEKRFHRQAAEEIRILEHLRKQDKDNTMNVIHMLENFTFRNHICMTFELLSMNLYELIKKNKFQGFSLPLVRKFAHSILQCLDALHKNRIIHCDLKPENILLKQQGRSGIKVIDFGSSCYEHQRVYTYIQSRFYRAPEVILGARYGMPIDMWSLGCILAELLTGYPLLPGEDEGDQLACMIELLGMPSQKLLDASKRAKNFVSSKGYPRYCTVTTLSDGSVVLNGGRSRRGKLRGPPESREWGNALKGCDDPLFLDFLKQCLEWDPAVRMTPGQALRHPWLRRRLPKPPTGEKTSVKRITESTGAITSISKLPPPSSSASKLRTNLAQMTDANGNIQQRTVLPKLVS

[4] = target: T4, panel of 374 wild-type kinases (Homo sapiens, UniProt Q96GD4); conditions: read-out: % Enzyme Activity (relative to DMSO controls), Aurora B
T4 construct: purchased Reaction Biology Corporation
T4 sequence (Q96GD4 whole entry): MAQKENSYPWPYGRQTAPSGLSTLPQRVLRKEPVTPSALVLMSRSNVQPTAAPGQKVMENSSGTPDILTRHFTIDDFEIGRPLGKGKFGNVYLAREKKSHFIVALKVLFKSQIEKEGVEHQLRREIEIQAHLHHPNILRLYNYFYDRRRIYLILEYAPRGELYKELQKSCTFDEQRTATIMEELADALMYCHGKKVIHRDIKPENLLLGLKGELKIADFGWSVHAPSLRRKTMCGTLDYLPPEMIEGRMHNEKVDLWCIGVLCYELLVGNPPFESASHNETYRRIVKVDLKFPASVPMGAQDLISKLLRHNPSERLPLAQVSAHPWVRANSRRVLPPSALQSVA

[5] = target: T5, panel of 374 wild-type kinases (Homo sapiens, UniProt P21802); conditions: read-out: % Enzyme Activity (relative to DMSO controls), FGFR2
T5 construct: purchased Reaction Biology Corporation
T5 sequence (P21802 22-821): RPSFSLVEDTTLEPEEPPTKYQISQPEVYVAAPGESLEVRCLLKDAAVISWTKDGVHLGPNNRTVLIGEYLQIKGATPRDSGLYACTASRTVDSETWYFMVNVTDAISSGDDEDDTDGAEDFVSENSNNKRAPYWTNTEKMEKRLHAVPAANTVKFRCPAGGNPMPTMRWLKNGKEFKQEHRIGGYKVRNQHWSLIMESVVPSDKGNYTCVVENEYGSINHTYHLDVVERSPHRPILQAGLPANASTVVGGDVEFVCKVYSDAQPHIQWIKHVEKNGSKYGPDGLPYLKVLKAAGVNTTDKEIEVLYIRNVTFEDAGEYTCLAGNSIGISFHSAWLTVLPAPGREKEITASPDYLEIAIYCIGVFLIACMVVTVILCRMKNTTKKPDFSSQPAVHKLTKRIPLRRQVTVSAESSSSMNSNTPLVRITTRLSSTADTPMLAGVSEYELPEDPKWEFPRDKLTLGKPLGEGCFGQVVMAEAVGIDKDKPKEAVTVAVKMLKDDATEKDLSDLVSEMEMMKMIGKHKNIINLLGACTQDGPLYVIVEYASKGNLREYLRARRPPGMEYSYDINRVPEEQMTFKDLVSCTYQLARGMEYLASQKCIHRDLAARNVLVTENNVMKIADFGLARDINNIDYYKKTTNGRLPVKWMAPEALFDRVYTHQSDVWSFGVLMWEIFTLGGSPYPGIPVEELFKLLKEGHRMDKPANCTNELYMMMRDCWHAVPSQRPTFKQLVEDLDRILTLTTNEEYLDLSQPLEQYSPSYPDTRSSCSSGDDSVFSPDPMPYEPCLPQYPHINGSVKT

[6] = target: T6, panel of 374 wild-type kinases (Homo sapiens, UniProt P23458); conditions: read-out: % Enzyme Activity (relative to DMSO controls), JAK1
T6 construct: purchased Reaction Biology Corporation
T6 sequence (P23458 whole entry): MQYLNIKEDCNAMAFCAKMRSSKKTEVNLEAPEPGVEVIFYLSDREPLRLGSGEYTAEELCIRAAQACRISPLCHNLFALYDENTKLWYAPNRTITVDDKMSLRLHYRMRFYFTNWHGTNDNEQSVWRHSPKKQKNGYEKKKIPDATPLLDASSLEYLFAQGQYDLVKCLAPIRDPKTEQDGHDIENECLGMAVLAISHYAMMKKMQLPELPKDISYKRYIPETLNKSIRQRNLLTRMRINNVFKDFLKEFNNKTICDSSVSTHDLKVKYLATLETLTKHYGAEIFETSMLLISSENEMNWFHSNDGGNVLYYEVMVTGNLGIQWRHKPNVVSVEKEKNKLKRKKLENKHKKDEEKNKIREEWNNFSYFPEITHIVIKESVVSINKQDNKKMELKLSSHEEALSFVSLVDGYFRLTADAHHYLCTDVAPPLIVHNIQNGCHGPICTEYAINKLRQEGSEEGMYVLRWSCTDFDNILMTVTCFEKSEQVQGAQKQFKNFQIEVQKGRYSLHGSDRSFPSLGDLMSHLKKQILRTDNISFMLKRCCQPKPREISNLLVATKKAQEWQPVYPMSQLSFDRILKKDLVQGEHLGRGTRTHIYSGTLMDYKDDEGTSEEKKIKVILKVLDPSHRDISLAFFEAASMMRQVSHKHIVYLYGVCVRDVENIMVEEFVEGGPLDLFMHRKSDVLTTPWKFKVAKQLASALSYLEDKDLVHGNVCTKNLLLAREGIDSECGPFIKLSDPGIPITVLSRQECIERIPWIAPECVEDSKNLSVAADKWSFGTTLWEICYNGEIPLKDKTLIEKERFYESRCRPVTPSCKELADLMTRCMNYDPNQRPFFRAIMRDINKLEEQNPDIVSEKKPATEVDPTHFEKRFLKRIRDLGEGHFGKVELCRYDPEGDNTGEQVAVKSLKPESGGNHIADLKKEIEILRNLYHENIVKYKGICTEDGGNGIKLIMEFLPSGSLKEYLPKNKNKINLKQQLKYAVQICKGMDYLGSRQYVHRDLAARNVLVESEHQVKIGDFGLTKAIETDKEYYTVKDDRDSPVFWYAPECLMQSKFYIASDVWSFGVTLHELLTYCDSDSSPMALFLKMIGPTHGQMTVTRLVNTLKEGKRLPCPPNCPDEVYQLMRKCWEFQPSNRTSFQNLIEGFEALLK

[7] = target: T7, panel of 374 wild-type kinases (Homo sapiens, UniProt Q9P286); conditions: read-out: % Enzyme Activity (relative to DMSO controls), kinase PAK5
T7 construct: purchased Reaction Biology Corporation
T7 sequence (Q9P286 whole entry): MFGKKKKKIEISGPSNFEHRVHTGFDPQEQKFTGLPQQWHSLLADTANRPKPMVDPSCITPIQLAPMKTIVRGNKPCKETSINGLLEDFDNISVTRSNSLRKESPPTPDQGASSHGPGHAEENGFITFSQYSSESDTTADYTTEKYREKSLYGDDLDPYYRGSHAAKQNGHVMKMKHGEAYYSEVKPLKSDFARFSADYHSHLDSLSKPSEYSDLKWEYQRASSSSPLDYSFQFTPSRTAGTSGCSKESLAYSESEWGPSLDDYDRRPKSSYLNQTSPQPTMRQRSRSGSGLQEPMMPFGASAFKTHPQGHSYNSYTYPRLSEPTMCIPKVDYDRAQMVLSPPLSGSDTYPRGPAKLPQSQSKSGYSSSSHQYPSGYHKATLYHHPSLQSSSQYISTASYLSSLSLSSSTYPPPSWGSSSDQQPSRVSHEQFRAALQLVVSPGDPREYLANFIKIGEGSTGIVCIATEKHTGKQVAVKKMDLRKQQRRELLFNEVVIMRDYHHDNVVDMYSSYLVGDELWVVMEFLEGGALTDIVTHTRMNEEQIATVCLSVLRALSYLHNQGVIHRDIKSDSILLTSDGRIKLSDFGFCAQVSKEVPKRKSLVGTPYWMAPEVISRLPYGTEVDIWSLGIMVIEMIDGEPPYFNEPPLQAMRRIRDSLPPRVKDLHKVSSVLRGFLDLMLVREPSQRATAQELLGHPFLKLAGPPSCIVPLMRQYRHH

[8] = target: T8, panel of 374 wild-type kinases (Homo sapiens, UniProt O95819); conditions: read-out: % Enzyme Activity (relative to DMSO controls), HGK/MAP4K4
T8 construct: purchased Reaction Biology Corporation
T8 sequence (O95819 whole entry): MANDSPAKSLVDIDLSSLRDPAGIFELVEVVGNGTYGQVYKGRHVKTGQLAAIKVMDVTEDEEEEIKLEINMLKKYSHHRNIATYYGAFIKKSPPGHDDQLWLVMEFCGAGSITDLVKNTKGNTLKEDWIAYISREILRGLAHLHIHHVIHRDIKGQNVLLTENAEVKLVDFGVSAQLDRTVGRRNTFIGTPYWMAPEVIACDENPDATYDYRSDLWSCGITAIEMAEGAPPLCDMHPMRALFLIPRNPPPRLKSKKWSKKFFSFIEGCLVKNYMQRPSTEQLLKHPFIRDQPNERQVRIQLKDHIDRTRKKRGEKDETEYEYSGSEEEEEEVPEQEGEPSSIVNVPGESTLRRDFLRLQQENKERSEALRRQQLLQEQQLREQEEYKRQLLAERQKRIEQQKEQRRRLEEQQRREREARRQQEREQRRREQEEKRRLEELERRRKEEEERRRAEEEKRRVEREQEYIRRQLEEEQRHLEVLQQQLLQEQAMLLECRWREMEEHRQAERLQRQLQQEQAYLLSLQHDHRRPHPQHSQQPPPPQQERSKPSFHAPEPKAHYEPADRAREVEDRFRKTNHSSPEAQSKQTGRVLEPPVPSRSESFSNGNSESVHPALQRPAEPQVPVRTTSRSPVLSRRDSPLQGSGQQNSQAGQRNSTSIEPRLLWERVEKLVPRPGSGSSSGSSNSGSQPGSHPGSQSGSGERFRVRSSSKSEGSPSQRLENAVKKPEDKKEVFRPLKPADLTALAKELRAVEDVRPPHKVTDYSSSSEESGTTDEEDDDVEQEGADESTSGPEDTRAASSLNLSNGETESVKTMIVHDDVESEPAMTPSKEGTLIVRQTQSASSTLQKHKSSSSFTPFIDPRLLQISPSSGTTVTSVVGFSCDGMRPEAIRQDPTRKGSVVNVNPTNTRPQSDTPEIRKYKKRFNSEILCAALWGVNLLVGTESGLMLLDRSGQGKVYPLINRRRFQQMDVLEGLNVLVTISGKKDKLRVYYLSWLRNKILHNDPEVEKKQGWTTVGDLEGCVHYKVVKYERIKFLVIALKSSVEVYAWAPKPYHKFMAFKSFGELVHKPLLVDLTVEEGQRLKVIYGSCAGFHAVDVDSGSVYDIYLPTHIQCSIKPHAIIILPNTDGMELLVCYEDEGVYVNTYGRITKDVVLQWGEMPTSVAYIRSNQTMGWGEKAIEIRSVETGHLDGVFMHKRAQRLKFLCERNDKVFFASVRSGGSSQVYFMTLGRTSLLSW

[9] = target: T9, panel of 374 wild-type kinases (Homo sapiens, UniProt Q9P1W9); conditions: read-out: % Enzyme Activity (relative to DMSO controls), kinase PIM2
T9 construct: purchased Reaction Biology Corporation
T9 sequence (Q9P1W9 whole entry): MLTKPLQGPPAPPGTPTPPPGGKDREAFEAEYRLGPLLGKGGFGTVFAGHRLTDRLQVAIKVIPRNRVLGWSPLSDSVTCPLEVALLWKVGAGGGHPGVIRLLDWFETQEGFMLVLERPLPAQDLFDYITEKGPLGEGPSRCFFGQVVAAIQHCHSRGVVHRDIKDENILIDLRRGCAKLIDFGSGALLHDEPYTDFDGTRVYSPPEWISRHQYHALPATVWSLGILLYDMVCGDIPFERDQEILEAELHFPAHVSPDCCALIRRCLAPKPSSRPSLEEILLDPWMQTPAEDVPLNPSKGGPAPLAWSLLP

[10] = target: T10, panel of 374 wild-type kinases (Homo sapiens, UniProt Q13976); conditions: read-out: % Enzyme Activity (relative to DMSO controls), kinase PKG1a
T10 construct: purchased Reaction Biology Corporation
T10 sequence (Q13976 1-671): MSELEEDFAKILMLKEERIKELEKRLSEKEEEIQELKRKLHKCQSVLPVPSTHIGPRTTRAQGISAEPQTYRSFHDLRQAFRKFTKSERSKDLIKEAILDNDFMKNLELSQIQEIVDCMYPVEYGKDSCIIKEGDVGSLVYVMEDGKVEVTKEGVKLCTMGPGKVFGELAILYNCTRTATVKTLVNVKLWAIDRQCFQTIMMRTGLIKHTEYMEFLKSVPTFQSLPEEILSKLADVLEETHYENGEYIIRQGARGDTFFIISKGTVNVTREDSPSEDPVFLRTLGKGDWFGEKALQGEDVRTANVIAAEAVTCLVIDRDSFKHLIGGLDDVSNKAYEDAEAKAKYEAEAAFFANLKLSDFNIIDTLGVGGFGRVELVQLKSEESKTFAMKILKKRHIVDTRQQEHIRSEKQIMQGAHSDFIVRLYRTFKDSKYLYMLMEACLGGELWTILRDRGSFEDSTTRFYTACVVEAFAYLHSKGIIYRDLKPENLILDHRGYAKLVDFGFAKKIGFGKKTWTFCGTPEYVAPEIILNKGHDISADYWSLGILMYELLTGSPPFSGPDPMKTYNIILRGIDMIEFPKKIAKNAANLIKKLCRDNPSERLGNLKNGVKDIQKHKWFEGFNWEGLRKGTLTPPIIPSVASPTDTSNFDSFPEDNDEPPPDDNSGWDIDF

Compound `O=C(Nc1cnn(-c2csc(C(=O)NC3COC3)c2)c1)Nc1c(F)cccc1Cl` [Compound 25, 4-(4-(3-(2-chloro-6-fluorophenyl)ureido)-1H-pyrazol-1-yl)-N-(oxetan-3-yl)thiophene-2-carboxamide] has a remaining activity at 5 µM [1] of 94.4%, a remaining activity at 5 µM [2] of 102% and a remaining activity at 5 µM [3] of 93.6%. It also gave a remaining activity at 5 µM [4] of 69.8%, a remaining activity at 5 µM [5] of 103% and a remaining activity at 5 µM [6] of 107%. It also gave a remaining activity at 5 µM [7] of 92.9%, a remaining activity at 5 µM [8] of 90.4% and a remaining activity at 5 µM [9] of 129%. For the same compound, the remaining activity at 5 µM [10] was 93.2%.
`O=C(Nc1cnn(-c2csc(C(=O)NC3COC3)c2)c1)Nc1ccccc1Cl` [Compound 17, 4-(4-(3-(2-chlorophenyl)ureido)-1H-pyrazol-1-yl)-N-(oxetan-3-yl)thiophene-2-carboxamide] showed a remaining activity at 5 µM [1] of 95.1%, a remaining activity at 5 µM [2] of 98.4% and a remaining activity at 5 µM [3] of 88.2%. For the same compound, the remaining activity at 5 µM [4] was 93%, the remaining activity at 5 µM [5] was 95.6% and the remaining activity at 5 µM [6] was 98.7%. It also gave a remaining activity at 5 µM [7] of 92.1%, a remaining activity at 5 µM [8] of 81.1% and a remaining activity at 5 µM [9] of 96.4%. The remaining activity at 5 µM [10] was 110%.
For `Cc1sc(C(=O)NC2COC2)cc1-n1cc(NC(=O)Nc2c(F)cccc2Cl)cn1` [Compound 27, 4-(4-(3-(2-chloro-6-fluorophenyl)ureido)-1H-pyrazol-1-yl)-5-methyl-N-(oxetan-3-yl)thiophene-2-carboxamide], the remaining activity at 10 µM ([1]; 10 uM) was 84.1%, the remaining activity at 10 µM ([2]; 10 uM) was 85.5% and the remaining activity at 10 µM ([3]; 10 uM) was 96.3%. It also gave a remaining activity at 10 µM ([4]; 10 uM) of 96.4%, a remaining activity at 10 µM ([5]; 10 uM) of 106% and a remaining activity at 10 µM ([6]; 10 uM) of 72.2%. It also gave a remaining activity at 10 µM ([7]; 10 uM) of 103%, a remaining activity at 10 µM ([8]; 10 uM) of 93.4% and a remaining activity at 10 µM ([9]; 10 uM) of 96.5%. The remaining activity at 10 µM ([10]; 10 uM) was 120%.
